Test results as given in patent US12281122B1, “PI3K inhibitors” (Cogent Biosciences, Inc., priority 2023, dated 2025).

Tests used:
[1] = system: SKBR3 (PI3Kα-Wild Type) cell line; experiment: HTRF phospho-AKT(S473) cell assay in SKBR3 cells; assay type: cell-based, human; conditions: Homo sapiens, SK-BR-3, 2 hours compound incubation, PDGF-BB stimulated
Summary of the method: (§1)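 HTRF read-out of phospho-AKT(S473) in lysates gave IC50 values after 2 h compound exposure at 37° C. Dose series was 12 points at 1:3, topping at 5 μM for T47D and 10 μM for SKBR3. Only SKBR3 received 70 ng/ml PDGF-BB during the last 15 minutes.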

[2] = system: T47D (PI3Kα-H1047R) cell line; experiment: HTRF phospho-AKT(S473) cell assay in T47D cells; assay type: cell-based, human; conditions: Homo sapiens, 2 hours compound incubation
Summary of the method: as §1

[3] = SKBR3 (PI3Kα-Wild Type) cells, HTRF phospho-AKT(S473)
[4] = T47D (PI3Kα-H1047R) cells, HTRF phospho-AKT(S473)
[5] = HTRF phospho-AKT(S473), SKBR3 (PI3Kα-Wild Type) cells
[6] = HTRF phospho-AKT(S473), T47D (PI3Kα-H1047R) cells

Compound	IC50 [1, 3] [nM]	IC50 [2, 4] [nM]	IC50 [1, 5] [nM]	IC50 [2, 6] [nM]	also measured
Cc1cc([C@@H](C)Nc2ccc(Cl)nc2C(=O)NS(C)(=O)=O)c2nc(N3C[C@H]4C[C@@H](c5ccn(C)n5)[C@@H]3C4)n(C)c(=O)c2c1 [Compound 315, 6-chloro-3-(((R)-1-(3,6-dimethyl-2-((1S,4S,6R)-6-(1-methyl-1H-pyrazol-3-yl)-2-azabicyclo[2.2.1]heptan-2-yl)-4-oxo-3,4-dihydroquinazolin-8-yl)ethyl)amino)-N-(methylsulfonyl) picolinamide]	≥ 5000	< 250	–	–	–
Cc1cc([C@@H](C)Nc2ccc(Cl)nc2C(=O)NS(C)(=O)=O)c2nc(N3CCC(n4cc(C)nn4)CC3)n(C)c(=O)c2c1 [Compound 716, (R)-6-chloro-3-((1-(3,6-dimethyl-2-(4-(4-methyl-1H-1,2,3-triazol-1-yl)piperidin-1-yl)-4-oxo-3,4-dihydroquinazolin-8-yl)ethyl)amino)-N-(methylsulfonyl) picolinamide]	–	–	1000 to 5000	< 250	–
Cc1cc([C@@H](C)Nc2ccc(Cl)nc2C(=O)NS(C)(=O)=O)c2nc(N3CCN(c4nc(C)ncc4F)CC3)n(C)c(=O)c2c1 [Compound 575, (R)-6-chloro-3-((1-(2-(4-(5-fluoro-2-methylpyrimidin-4-yl)piperazin-1-yl)-3,6-dimethyl-4-oxo-3,4-dihydroquinazolin-8-yl)ethyl)amino)-N-(methylsulfonyl) picolinamide]	–	–	1000 to 5000	< 250	–
Cc1cc([C@@H](C)Nc2ccc(Cl)nc2C(=O)NS(C)(=O)=O)c2nc(N3CCC(c4cc(C#N)n(C)n4)CC3)n(C)c(=O)c2c1 [Compound 357, (R)-6-chloro-3-((1-(2-(4-(5-cyano-1-methyl-1H-pyrazol-3-yl)piperidin-1-yl)-3,6-dimethyl-4-oxo-3,4-dihydroquinazolin-8-yl)ethyl)amino)-N-(methylsulfonyl) picolinamide]	1000 to 5000	< 250	–	–	–
Cc1cc([C@@H](C)Nc2ccc(Cl)nc2C(=O)NS(C)(=O)=O)c2nc(N3CCN(c4ccnc(C5CC5)n4)CC3)n(C)c(=O)c2c1 [Compound 590, (R)-6-chloro-3-((1-(2-(4-(2-cyclopropylpyrimidin-4-yl)piperazin-1-yl)-3,6-dimethyl-4-oxo-3,4-dihydroquinazolin-8-yl)ethyl)amino)-N-(methylsulfonyl) picolinamide]	–	–	1000 to 5000	< 250	–
[2H]C([2H])([2H])n1cc(-c2ccc(-c3nc4c([C@@H](C)Nc5ccc(Cl)nc5C(=O)NS(C)(=O)=O)cc(C)cc4c(=O)n3C)cn2)cn1 [Compound 855, (R)-6-chloro-3-((1-(3,6-dimethyl-2-(6-(1-(methyl-d3)-1H-pyrazol-4-yl)pyridin-3-yl)-4-oxo-3,4-dihydroquinazolin-8-yl)ethyl)amino)-N-(methylsulfonyl) picolinamide]	–	–	–	–	IC50 ([1]; SKBR3 (PI3Kα-Wild Type) cell line, phospho-AKT(S473) HTRF): 1000 to 5000 nM; IC50 ([2]; T47D (PI3Kα-H1047R) cell line, phospho-AKT(S473) HTRF): < 250 nM
Cc1cc([C@@H](C)Nc2ccc(Cl)nc2C(=O)NS(C)(=O)=O)c2nc(N3CCN(c4nc(C(F)F)ncc4F)CC3)n(C)c(=O)c2c1 [Compound 772, (R)-6-chloro-3-((1-(2-(4-(2-(difluoromethyl)-5-fluoropyrimidin-4-yl)piperazin-1-yl)-3,6-dimethyl-4-oxo-3,4-dihydroquinazolin-8-yl)ethyl)amino)-N-(methylsulfonyl) picolinamide]	–	–	≥ 5000	< 250	–
Cc1cc([C@@H](C)Nc2ccc(Cl)nc2C(=O)NS(C)(=O)=O)c2nc(N3CCC(c4nc(C(F)F)n(C)n4)CC3)n(C)c(=O)c2c1 [Compound 434, (R)-6-chloro-3-((1-(2-(4-(5-(difluoromethyl)-1-methyl-1H-1,2,4-triazol-3-yl)piperidin-1-yl)-3,6-dimethyl-4-oxo-3,4-dihydroquinazolin-8-yl)ethyl)amino)-N-(methylsulfonyl) picolinamide]	≥ 5000	500 to 1000	–	–	–
Cc1cc([C@@H](C)Nc2ccc(Cl)nc2C(=O)NS(C)(=O)=O)c2nc(N3CCC(c4ccnn4C4CC4)CC3)n(C)c(=O)c2c1 [Compound 501, (R)-6-chloro-3-((1-(2-(4-(1-cyclopropyl-1H-pyrazol-5-yl)piperidin-1-yl)-3,6-dimethyl-4-oxo-3,4-dihydroquinazolin-8-yl)ethyl)amino)-N-(methylsulfonyl) picolinamide]	–	–	1000 to 5000	< 250	–
Cc1cc([C@@H](C)Nc2ccc(Cl)nc2C(=O)NS(C)(=O)=O)c2nc(N3CCC(c4nnc(C)s4)CC3)n(C)c(=O)c2c1 [Compound 558, (R)-6-chloro-3-((1-(3,6-dimethyl-2-(4-(5-methyl-1,3,4-thiadiazol-2-yl)piperidin-1-yl)-4-oxo-3,4-dihydroquinazolin-8-yl)ethyl)amino)-N-(methylsulfonyl) picolinamide]	–	–	1000 to 5000	< 250	–
Cc1cc([C@@H](C)Nc2ccc(Cl)nc2C(=O)NS(C)(=O)=O)c2nc(N3CCC[C@H](c4cnn(CC(F)(F)F)c4)C3)n(C)c(=O)c2c1 (relative stereo) [Compound 231, 6-chloro-3-(((R)-1-(3,6-dimethyl-4-oxo-2-((R*)-3-(1-(2,2,2-trifluoroethyl)-1H-pyrazol-4-yl)piperidin-1-yl)-3,4-dihydroquinazolin-8-yl)ethyl)amino)-N-(methylsulfonyl) picolinamide]	1000 to 5000	< 250	–	–	–
Cc1cc([C@@H](C)Nc2ccc(Cl)nc2C(=O)NS(C)(=O)=O)c2nc(N3CCC(c4nn(C(F)F)cc4F)CC3)n(C)c(=O)c2c1 [Compound 463, (R)-6-chloro-3-((1-(2-(4-(1-(difluoromethyl)-4-fluoro-1H-pyrazol-3-yl)piperidin-1-yl)-3,6-dimethyl-4-oxo-3,4-dihydroquinazolin-8-yl)ethyl)amino)-N-(methylsulfonyl) picolinamide]	–	–	≥ 5000	250 to 500	–

Further lines, with some results ahead:

IC50 [1, 3] [nM]	IC50 [2, 4] [nM]	IC50 [1, 5] [nM]	IC50 [2, 6] [nM]	Compound	also measured
–	–	≥ 5000	250 to 500	Cc1cc([C@@H](C)Nc2ccc(Cl)nc2C(=O)NS(C)(=O)=O)c2nc(-c3ccc(OC4CCN(CC(F)F)CC4)nc3)n(C)c(=O)c2c1 [Compound 815, (R)-6-chloro-3-((1-(2-(6-((1-(2,2-difluoroethyl)piperidin-4-yl)oxy)pyridin-3-yl)-3,6-dimethyl-4-oxo-3,4-dihydroquinazolin-8-yl)ethyl)amino)-N-(methylsulfonyl) picolinamide]	–
–	–	≥ 5000	250 to 500	Cc1cc([C@@H](C)Nc2ccc(Cl)nc2C(=O)NS(C)(=O)=O)c2nc(N3CC[C@@H](c4cnc(C)nc4)C3)n(C)c(=O)c2c1 (relative stereo) [Compound 657, 6-chloro-3-(((R)-1-(3,6-dimethyl-2-((R*)-3-(2-methylpyrimidin-5-yl)pyrrolidin-1-yl)-4-oxo-3,4-dihydroquinazolin-8-yl)ethyl)amino)-N-(methylsulfonyl) picolinamide]	–
–	–	≥ 5000	250 to 500	Cc1cc([C@@H](C)Nc2ccc(Cl)nc2C(=O)NS(C)(=O)=O)c2nc(N3Cc4cccc(-c5cncn5C)c4C3)n(C)c(=O)c2c1 [Compound 674, (R)-6-chloro-3-((1-(3,6-dimethyl-2-(4-(1-methyl-1H-imidazol-5-yl)isoindolin-2-yl)-4-oxo-3,4-dihydroquinazolin-8-yl)ethyl)amino)-N-(methylsulfonyl) picolinamide]	–
–	–	1000 to 5000	< 250	Cc1cc([C@@H](C)Nc2ccc(Cl)nc2C(=O)NS(C)(=O)=O)c2nc(-c3cc(F)c4nn(C)cc4c3)n(C)c(=O)c2c1 [Compound 788, (R)-6-chloro-3-((1-(2-(7-fluoro-2-methyl-2H-indazol-5-yl)-3,6-dimethyl-4-oxo-3,4-dihydroquinazolin-8-yl)ethyl)amino)-N-(methylsulfonyl) picolinamide]	–
–	–	1000 to 5000	250 to 500	Cc1cc([C@@H](C)Nc2ccc(Cl)nc2C(=O)NS(C)(=O)=O)c2nc(-c3ccc4cn(C)nc4c3)n(C)c(=O)c2c1 [Compound 835, (R)-6-chloro-3-((1-(3,6-dimethyl-2-(2-methyl-2H-indazol-6-yl)-4-oxo-3,4-dihydroquinazolin-8-yl)ethyl)amino)-N-(methylsulfonyl) picolinamide]	–
1000 to 5000	< 250	–	–	Cc1cc([C@@H](C)Nc2ccc(Cl)nc2C(=O)NS(C)(=O)=O)c2nc(N3CCC(c4ccnc(C)n4)CC3)n(C)c(=O)c2c1 [Compound 260, (R)-6-chloro-3-((1-(3,6-dimethyl-2-(4-(2-methylpyrimidin-4-yl)piperidin-1-yl)-4-oxo-3,4-dihydroquinazolin-8-yl)ethyl)amino)-N-(methylsulfonyl) picolinamide]	–
–	–	1000 to 5000	250 to 500	Cc1cc([C@@H](C)Nc2ccc(Cl)nc2C(=O)NS(C)(=O)=O)c2nc(N3CCn4ncc(F)c4C3)n(C)c(=O)c2c1 [Compound 711, (R)-6-chloro-3-((1-(2-(3-fluoro-6,7-dihydropyrazolo[1,5-a]pyrazin-5(4H)-yl)-3,6-dimethyl-4-oxo-3,4-dihydroquinazolin-8-yl)ethyl)amino)-N-(methylsulfonyl) picolinamide]	–
1000 to 5000	< 250	–	–	Cc1cc([C@@H](C)Nc2ccc(Cl)nc2C(=O)NS(C)(=O)=O)c2nc(N3CCC[C@@H](c4ccc(C)nc4)C3)n(C)c(=O)c2c1 (relative stereo) [Compound 238, 6-chloro-3-(((R)-1-(3,6-dimethyl-2-((R*)-3-(6-methylpyridin-3-yl)piperidin-1-yl)-4-oxo-3,4-dihydroquinazolin-8-yl)ethyl)amino)-N-(methylsulfonyl) picolinamide]	–
